Earlier results as cited in patent US20120101089A1, “Anti-Emetic Substance” (priority 2010, published 2012).
“Also recorded” adds a separate entry of the source. Read-outs that look alike come from different tables or passages of the source.

How the values were obtained:
[1] = for Adverse Effect: common adverse effects associated with single agents, listed per class
[2] = single-arm study
[3] = for prevention of PONV versus placebo: ephedrine 0.5 mg/kg i.m., propofol […] i.v., laparoscopic surgery; for PONV prevention versus comparators: major gynecological surgery

CCN(CC)C(=O)C1CN2CCc3cc(OC)c(OC)cc3C2CC1OC(C)=O (stereo not shown) [benzquinamide, Benzquinamide]
Adverse Effect [1]: Sedation, EPS, restlessness,

CN(C)CCCN1c2ccccc2Sc2ccc(Cl)cc21 [chlorpromazine]
Adverse Effect [1]: Sedation, EPS, hypotension,

CN1CCN(C(c2ccccc2)c2ccccc2)CC1 [cyclizine, Cyclizine]
Adverse Effect [1]: Sedation, dry mouth,

CS(=O)(=O)O.O=C(OC1C[C@@H]2CC3C[C@H](C1)N2CC3=O)c1c[nH]c2ccccc12 (stereo partly shown) [dolasetron mesylate]
patients with some emesis control [2]: 65%

O=C(O[C@@H]1C[C@@H]2C[C@H]3C[C@H](C1)N2CC3=O)c1c[nH]c2ccccc12 [dolasetron, Dolasetron]
clearance and half-life in children compared with young healthy adult volunteers (children): increased clearance and a shorter half-life
elimination half-life (parent compound): 9 min

O=C(CCCN1CC=C(n2c(=O)[nH]c3ccccc32)CC1)c1ccc(F)cc1 [droperidol]
duration of action / effect (following administration, route not stated): ≤ 24 h
prevention of PONV ([3]; 5 μg/kg i.v. 1 hour before end of anesthesia, children 11 to 15 years): effective in preventing PONV
best anti-emetic effectiveness among groups ([3]; 1.25 mg dose (Fortney)): best anti-emetic effectiveness
prevention of PONV versus i.v. droperidol 1.25 mg or ondansetron 4 mg ([3]; i.v. 0.625 mg at start of anesthesia, outpatient gynecological operations): as effective
PONV prevention, low versus higher dose ([3]; i.v. 0.625 mg immediately following intubation): as effective as intravenous droperidol 1.25 mg
prevention of PONV versus comparators ([3]; i.v. 1.25 mg before end of general anesthesia, female patients, elective orthopaedic surgery): significantly superior to intravenous metoclopromide 10 mg and a saline placebo
prevention of PONV versus comparators ([3]; i.v. 1.25 mg immediately before end of anesthesia, day-stay and major gynaecological surgery): superior to intravenous metoclopramide 10 mg, intravenous domperidone 5 mg and an intravenous saline placebo
patients with no emesis versus i.v. ondansetron 8 mg ([3]; i.v. 2.5 mg, women, inpatient minor gynaecological surgery): more patients
prevention of PONV symptoms ([3]; i.v. tropisetron 5 mg, droperidol 1.25 mg at the end of gynaecological surgery (Purhonen)): failed to prevent any PONV symptoms
anti-emetic effectiveness versus haloperidol ([3]; intramuscular 5 mg): equivalent anti-emetic effectiveness to intramuscular haloperidol 2 mg
sedation or other adverse effects ([1]; 1.25 mg dose (Fortney)): no increase in sedation or other adverse effects
Adverse Effect [1]: Sedation, EPS,
adverse effects (dystonic reactions, EPS, sedation) ([1]; i.v. 0.625 mg and 1.25 mg): few adverse effects
sedation or other adverse effects ([1]; i.v. 0.625 mg or 1.25 mg, outpatient gynecological operations): no increase in sedation or other adverse effects
anxiety and drowsiness ([1]; i.v. 1.25 mg at the end of gynaecological surgery (Purhonen)): increase in anxiety and drowsiness
adverse effects versus studies with dose less than 2.5 mg ([1]; i.v. 2.5 mg): more adverse effects (i.e. sedation, dizziness)
sedation, droperidol versus ondansetron groups ([1]; i.v. ondansetron 4 mg, droperidol 20 μg/kg, outpatient gynaecological laparoscopy): no difference

CN[C@@H](C)[C@H](O)c1ccccc1 [ephedrine]
prevention of PONV versus placebo [3]: more effective, with no haemodynamic changes, than placebo

CN1C2CCCC1CC(NC(=O)c1nn(C)c3ccccc13)C2 (stereo not shown) [granisetron, Granisetron]
PONV prevention versus comparators ([3]; 40 μg/kg immediately prior to induction, women during menstruation (Fujii)): more effective than droperidol 25 μg/kg or metoclopramide 0.2 mg/kg
optimal dose for PONV prevention ([3]; adults and children, intravenous, other studies): 0.04 mg/kg
optimum effective prophylactic dose ([3]; adults, i.v. immediately before the start of anesthesia, 0.1, 1 and 3 mg compared): 1 mg
PONV prevention versus comparators ([3]; i.v. 2.5 mg immediately prior to anesthesia, history of postoperative emesis and motion sickness): more effective than droperidol 1.25 mg or metoclopramide 10 mg
PONV prevention versus metoclopramide 10 mg or placebo ([3]; i.v. ondansetron 4 mg, granisetron 3 mg, tropisetron 5 mg before start of anesthesia (Naguib)): significantly greater anti-emetic effectiveness than metoclopramide or placebo
Adverse Effect [1]: Headache, dizziness

O=C(CCCN1CCC(O)(c2ccc(Cl)cc2)CC1)c1ccc(F)cc1 [haloperidol]
duration of action (intramuscular): approximately 12 hours
onset time / onset of action (intramuscular): approximately 30 minutes
effectiveness in PONV ([3]; 7 μg/kg i.v. and 0.5 to 4.0 mg i.m. for prevention, 1 mg i.m. for treatment): effective in PONV, with little sedative effect
Adverse Effect [1]: Sedation, EPS,

O=C(OC1CC2CC3CC(C1)N2CC3O)c1c[nH]c2ccccc12 (stereo not shown) [hydrodolasetron]
share of the anti-emetic effect (active metabolite of dolasetron): 87%
mean half-life (intravenous form): ~8.3 h
mean half-life (oral form): approximately 7.1 hours

OCCOCCN1CCN(C(c2ccccc2)c2ccc(Cl)cc2)CC1 (stereo not shown) [hydroxyzine, Hydroxyzine]
incidence of PONV versus droperidol ([3]; i.m. 100 mg after induction of anesthesia, non-premedicated patients): decrease the incidence of PONV more effectively than intramuscular droperidol 2.5 mg
Adverse Effect [1]: Sedation, dry mouth,

Cc1ncc2n1-c1ccc(Cl)cc1C(c1ccccc1F)=NC2 [midazolam, Midazolam]
prevention of vomiting after tonsillectomy ([3]; 75 μg/kg i.v. after induction of anesthesia, children): effective for the prevention of vomiting

OCCN1CCN(CCCN2c3ccccc3Sc3ccc(Cl)cc32)CC1 [perphenazine]
efficacy in preventing PONV versus comparator ([3]; children after tonsillectomy, prophylactic 70 μg/kg): more effective than dexamethasone 150 μg/kg; also recorded: equally as effective as ondansetron 150 μg/kg
emesis after tonsillectomy ([3]; paediatric patients, prophylactic i.v. 70 μg/kg): decreased emesis
Adverse Effect [1]: Sedation, EPS, hypotension,

CC(CN1c2ccccc2Sc2ccccc21)N(C)C (stereo not shown) [promethazine]
Adverse Effect [1]: Sedation, EPS, hypotension,

CC(C)c1cccc(C(C)C)c1O [propofol]
prevention of PONV by anesthetic used ([3]; 0.5 mg/kg i.v., outpatient laparoscopic cholecystectomy): more effective in preventing PONV after sevoflurane anesthesia than desflurane anesthesia
plasma concentration necessary to obtain a 50% reduction in postoperative nausea ([3]; 10 mg i.v. bolus followed by infusion of 10 μg/kg/min): 343 ng/L
overall occurrence of PONV versus 10% Intralipid ([3]; 20-hour postoperative 0.1 ml/kg/hour infusion): less
prevention of PONV versus placebo [3]: more effective, with no haemodynamic changes, than placebo
effect on PONV ([3]; i.v. bolus 0.1 mg/kg followed by constant infusion of 1 mg/kg/hour): no effect on PONV
PONV prophylaxis versus thiopentone 1.0 mg/kg ([3]; i.v. subhypnotic 0.5 mg/kg, first 6 hours after middle ear surgery): significantly better PONV prophylaxis against retching and vomiting
prevention of PONV versus ondansetron ([3]; intraoperative intravenous, first 6 hours postoperatively): equally as effective as intravenous ondansetron 4 mg

CN1[C@@H]2C[C@@H](OC(=O)[C@H](CO)c3ccccc3)C[C@H]1[C@@H]1O[C@@H]12 [scopolamine, Scopolamine]
Adverse Effect [1]: Sedation, dry mouth,
